Assay results from US10954235B2, “Crystalline forms of valbenazine salts” (Sandoz AG, priority 2017, dated 2021).

Assay: Differential scanning calorimetry (DSC), thermal stability
Assay type: physicochemical
Details: heating rate 10 K/min; judged from first endotherm
Procedure: Differential scanning calorimetry (DSC) was performed with a DSC 7 (Perkin-Elmer, Norwalk, Conn., USA) using a Pyris 2.0 software. 4.7307±0.0005 mg sample (using a UM3 ultramicrobalance, Mettler, Greifensee, CH) were weighed into Al-Pans (25 microliter) and sealed with a cover, which was perforated by a needle. The sample was heated at a rate of 10 K/min. Dry nitrogen was used as the purge gas (purge rate: 20 mL/min). Differential scanning calorimetry (DSC) was performed with a DSC 7 (Perkin-Elmer, Norwalk, Conn., USA) using a Pyris 2.0 software. 7.115±0.0005 mg sample (using a UM3 ultramicrobalance, Mettler, Greifensee, CH) were weighed into Al-Pans (25 microliter) and sealed with a cover, which was perforated by a needle. The sample was heated at a rate of 10 K/min. Dry nitrogen was used as the purge gas (purge rate: 20 mL/min).

With COc1cc2c(cc1OC)[C@H]1C[C@@H](OC(=O)[C@@H](N)C(C)C)[C@H](CC(C)C)CN1CC2 [Example 1, ((S)-(2R,3R,11bR)-3-isobutyl-9,10-dimethoxy-2,3,4,6,7,11b-hexahydro-1H-pyrido[2,1-a]isoquinolin-2-yl 2-amino-3-methylbutanoate) ditosylate] the “stability against temperature stress (DSC)” value was “very stable against temperature stress”.
